In patent publication US12502403B2, “Tafoxiparin for the treatment of preeclampsia” (DILAFOR AB, priority 2020, dated 2025):
One block for each substance: values may come before it.

How the values were obtained:
subcutaneous arteries [1] = assay: Myograph: endothelin 1 (ET-1)-induced contraction of subcutaneous artery segments after pre-treatment and placental vesicles; assay type: cell-based, human; conditions: for contraction to ET-1 / AUC / AUC/AUC (PE) % / % contractile change: Example 5, 10 μg/ml pre-incubation then PE vesicles; for AUC / AUC/AUC (PE) % / % contractile change: ET-1, pooled from five patients; for % contractile change: vs PE; for reduction of contraction induced with ET-1: vs PE vesicles only; for Emax [%] ET-1: relative to 60 mM potassium contraction; for logEC50 ET-1: EC50 of agonist ET-1; for effect on ET-1 mediated contraction with control P vesicles: vs vesicles only
From the text: (§1) In a myograph model, arteries from subcutaneous tissue of women undergoing Caesarian section were used. The contractile effect of arteries comprising vesicles derived from placentas from pre-eclamptic women was compared with the contractile effect of arteries comprising vesicles derived from placentas from non-preeclamptic women. […] The Low Molecular Weight Heparin (LMWH) tinzaparin (Innohep®, Leo Pharma Denmark) was used as a comparator.
(§2) Subcutaneous arteries were removed from the subcutaneous fat of the abdomen during Caesarean section and immediately put in cold DMEM-medium. Arteries were dissected in cold Na-Krebs buffer at a pH of 7.3-7.4 and cut into ring segments with a length of 1-2 mm as previously shown. The sections were mounted on two 40 μm-diameter wires and connected to a device sensitive to vascular tension. The stretching force property of the arteries were recorded with Mulvany-Halpern myographs. The mounted arterial segments were immersed into temperature-controlled (+37° C.) tissue baths containing bicarbonate-based buffer solution gassed with carbogen to obtain a pH of 7.3-7.4. Each segment was stretched to 90% of the normal internal circumference, which is the size each segment would have in a transmural pressure of 100 mm Hg. The contractile capacity of each artery segment was checked by exposure to 60 mM KCl buffer solution twice or three times to study viability. After each the bath was washed and the tone returned to baseline. When stable, different molecules or receptor agonists are added to the baths in concentration-dependent manner to observe the vasomotor responses of the vessels.
(§3) The artery segments were studied by exposure to angiotensin II or endothelin 1 in cumulative concentrations of the agonists. […] In some experiments, 30 minutes after adding vesicles to the tissue baths concentration-contraction curves were obtained by cumulative application of angiotensin II (angiotensin 1 and 2 receptor agonist, concentration range 10^−12 to 10^−6 M). After washing and the tension returning to base line, agonists are added. After washing and the tension returning to base line endothelin 1 was added (endothelin A and B receptor agonist, concentration range 10^−11 to 10^−7 M).
(§4) After 30 minutes, non-preeclampsia vesicles as control (P) or pre-eclampsia (PE) vesicles were added at a concentration of 200 μg (protein concentration 40 μg/mL).
(§5) 30 minutes after adding vesicles to the tissue baths, concentration-contraction curves were obtained by cumulative application of angiotensin II (A9525 Sigma-Aldrich Angiotensin II human, powder CAS Number 4474-91-3 dissolved in sodium chloride to a concentration of 10^−3 M) and used in the concentration range 10^−12 to 10^−6 M. After wash-out and the tension had returned to base line, ET-1 (ALX-155-001, Enzo Life Sciences) was added and recorded (endothelin A and B receptor agonist, concentration range 10^−11 to 10^−7 M).

subcutaneous arteries [2] = assay: Myograph: endothelial function (relaxation to substance P after potassium pre-contraction); assay type: cell-based, human
Protocol: In some experiments the endothelial function was tested by pre-contraction the vessels with 30 mM potassium buffer, giving a stable tone and endothelium function evaluated by exposure to substance P (10^−6 or 10^−5 M).

subcutaneous arteries [3] = assay: Myograph: angiotensin II-induced contraction of subcutaneous artery segments after pre-treatment and placental vesicles; conditions: for contractile effect of AngII in the presence of PE: 10 μg/ml pre-incubation; for AUC / AUC/AUC (PE) % / % contractile change: AngII; for % contractile change: vs PE; for Emax [%] AngII: relative to 60 mM potassium contraction; for logEC50 AngII: EC50 of agonist AngII; for effect on Ang II mediated contraction with control P vesicles: vs vesicles only;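 for all read-outs here: wire myograph tension of human abdominal subcutaneous artery rings from Caesarean deliveries at 37 °C, 30 min pre-treatment, vesicles 30 min, then cumulative angiotensin II 10^−12 to 10^−6 M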
From the text: as §1, §2, §3, §4, §5

[4] = patient 14, 10 μg/ml before PE-vesicles
[5] = patient 14, 10 μg/ml pre-treatment then PE vesicles
[6] = patient 14, drug only, no vesicles
[7] = patient 14, pre-treatment then P vesicles
[8] = patient 14, pre-treatment then PE vesicles
[9] = patient 14, control (P) vesicles
[10] = Example 3, 10 μg/ml pre-incubation then PE vesicles, pooled from four patients
[11] = Example 4, 100 μg/ml pre-incubation then PE vesicles
[12] = Example 4, 100 μg/ml pre-incubation then PE vesicles, pooled from five patients
[13] = patient 14, 10 μg/ml before PE-vesicles, vs PE vesicles only
[14] = patient 13, 10 μg/ml pre-treatment then PE vesicles
[15] = patient 13, drug only, no vesicles
[16] = patient 13, pre-treatment then P vesicles
[17] = patient 13, control (P) vesicles

Substance: tafoxiparin
contraction to ET-1 (subcutaneous arteries [1]): significantly lower contraction
AUC (subcutaneous arteries [1]): 193.1
AUC/AUC (PE) % (subcutaneous arteries [1]): 61.8%
% contractile change (subcutaneous arteries [1]): −38%
reduction of contraction induced with ET-1 (subcutaneous arteries [1]; [4]): 56%
Emax [%] ET-1 (subcutaneous arteries [1]; [5]): 77%
logEC50 ET-1 (subcutaneous arteries [1]; [6]): 9.9
logEC50 ET-1 (subcutaneous arteries [1]; [7]): 7.7
logEC50 ET-1 (subcutaneous arteries [1]; [8]): 6.9
effect on ET-1 mediated contraction with control P vesicles (subcutaneous arteries [1]; [9]): little or no effect
Emax [%] ET-1 (subcutaneous arteries [1]; [6]): 180%
Emax [%] ET-1 (subcutaneous arteries [1]; [7]): 105%
Endothelial function [%] (subcutaneous arteries [2]; [6]): 85%
Endothelial function [%] (subcutaneous arteries [2]; [7]): 22%
Endothelial function [%] (subcutaneous arteries [2]; [8]): 67%
contractile effect of AngII in the presence of PE (subcutaneous arteries [3]; Example 3): affect the contractile effect of AngII
AUC (subcutaneous arteries [3]; [10]): 160.5
AUC/AUC (PE) % (subcutaneous arteries [3]; [10]): 68.5%
% contractile change (subcutaneous arteries [3]; [10]): −31.5%
AngII induced contraction (subcutaneous arteries [3]; [11]): significantly decreased
AUC (subcutaneous arteries [3]; [12]): 306.5
AUC/AUC (PE) % (subcutaneous arteries [3]; [12]): 70.8%
% contractile change (subcutaneous arteries [3]; [12]): −29%
reduction of contraction induced with angiotensin II (subcutaneous arteries [3]; [13]): 79%
Emax [%] AngII (subcutaneous arteries [3]; [5]): 27%
logEC50 AngII (subcutaneous arteries [3]; [6]): 10.2
logEC50 AngII (subcutaneous arteries [3]; [7]): 9.8
logEC50 AngII (subcutaneous arteries [3]; [8]): 9.4
effect on Ang II mediated contraction with control P vesicles (subcutaneous arteries [3]; [9]): little or no effect
Emax [%] AngII (subcutaneous arteries [3]; [6]): 101%
Emax [%] AngII (subcutaneous arteries [3]; [7]): 73%

reduction of log EC50 (ET-1) (subcutaneous arteries [1]; patient 13, 10 μg/ml before PE-vesicles, extrapolated): 35%
Substance: tinzaparin
contraction to ET-1 (subcutaneous arteries [1]): significantly lower contraction
AUC (subcutaneous arteries [1]): 259.5
AUC/AUC (PE) % (subcutaneous arteries [1]): 83.1%
% contractile change (subcutaneous arteries [1]): −17%
contraction induced with ET-1 (the Emax) compared with PE vesicles only (subcutaneous arteries [1]; patient 13, 10 μg/ml before PE-vesicles): the same
Emax [%] ET-1 (subcutaneous arteries [1]; [14]): 143%
logEC50 ET-1 (subcutaneous arteries [1]; [15]): 8.5
logEC50 ET-1 (subcutaneous arteries [1]; [16]): 8.8
logEC50 ET-1 (subcutaneous arteries [1]; patient 13, pre-treatment then PE vesicles (extrapolated)): 5.7
effect on contraction in the presence of control vesicles (ET-1) (subcutaneous arteries [1]; [17]): did not appear to have any reducing effect
Emax [%] ET-1 (subcutaneous arteries [1]; [15]): 144%
Emax [%] ET-1 (subcutaneous arteries [1]; [16]): 166%
reduction of contraction induced with ET-1 (subcutaneous arteries [1]; [4]): 15%
Emax [%] ET-1 (subcutaneous arteries [1]; [5]): 147%
logEC50 ET-1 (subcutaneous arteries [1]; [7]): 9.4
logEC50 ET-1 (subcutaneous arteries [1]; [8]): 9.9
effect on ET-1 mediated contraction with control P vesicles (subcutaneous arteries [1]; [9]): increased contraction
Emax [%] ET-1 (subcutaneous arteries [1]; [7]): 197%
Endothelial function [%] (subcutaneous arteries [2]; [15]): 96%
Endothelial function [%] (subcutaneous arteries [2]; patient 13, pre-treatment then PE vesicles): 119.95%
Endothelial function [%] (subcutaneous arteries [2]; patient 13, pre-treatment then non-preeclampsia (P) vesicles): 69.11%
Endothelial function [%] (subcutaneous arteries [2]; [7]): 22%
Endothelial function [%] (subcutaneous arteries [2]; [8]): 1%
contractile effect of AngII in the presence of PE (subcutaneous arteries [3]; Example 3): affect the contractile response of AngII
AUC (subcutaneous arteries [3]; [10]): 170.5
AUC/AUC (PE) % (subcutaneous arteries [3]; [10]): 72.7%
% contractile change (subcutaneous arteries [3]; [10]): −27.3%
AngII induced contraction (subcutaneous arteries [3]; [11]): significantly decreased
AUC (subcutaneous arteries [3]; [12]): 299.6
AUC/AUC (PE) % (subcutaneous arteries [3]; [12]): 69.3%
% contractile change (subcutaneous arteries [3]; [12]): −31%
reduction of maximum contraction induced by angiotensin II (subcutaneous arteries [3]; patient 13, 10 μg/ml before PE-vesicles, vs PE vesicles only): 23%
Emax [%] AngII (subcutaneous arteries [3]; [14]): 75%
logEC50 AngII (subcutaneous arteries [3]; [16]): 10.8
effect on contraction in the presence of control vesicles (AngII) (subcutaneous arteries [3]; [17]): did not appear to have any reducing effect
Emax [%] AngII (subcutaneous arteries [3]; [15]): 69%
Emax [%] AngII (subcutaneous arteries [3]; patient 13, pre-treatment then P (non-PE) vesicles): 103%
reduction of contraction induced with angiotensin II (subcutaneous arteries [3]; [13]): 14%
Emax [%] AngII (subcutaneous arteries [3]; [5]): 109%
logEC50 AngII (subcutaneous arteries [3]; [7]): 10.0
logEC50 AngII (subcutaneous arteries [3]; [8]): 10.0
effect on Ang II mediated contraction with control P vesicles (subcutaneous arteries [3]; [9]): increased contraction
Emax [%] AngII (subcutaneous arteries [3]; [7]): 135%
